According to patent US20190201419A1, “COMPOUND AND METHOD FOR THE TREATMENT AND DIAGNOSIS OF NEURODEGENERATIVE CONDITIONS” (Swansea University, priority 2013, published 2019):

Tests used:
zebrafish embryos = assay: Survival of transgenic zebrafish embryos on compound exposure; format: in vivo
Description: Zebrafish Strain and Maintenance Zebrafish were raised on a 14/10 h day/night cycle and were kept at 28.5 ° C. Islet-1:GFP transgenic embryos were obtained via natural spawning and staged in hours or days post fertilization (hpf and dpt) according to Kimmel et al). Embryos older than 24 hpf were treated with 0.03% phenylthiourea (PTU) to inhibit pigmentation. MO injections were performed using splice site specific zebrafish lxi MO MO injected embryos were immediately dechorionated and transferred to a 96 well plate and exposed to dimethyl sulfoxide (DMSO) treated or ligand treated medium. Compound Exposure. Islet-1:GFP embryos were collected by natural mating and immediately (at 1 cell stage) dechorionated and transferred to a 96 well plate. Each of the compounds tested were obtained as 10 mM stock and diluted in embryo medium to a final concentration of 10 μM, and 200 μL was added to each well. DMSO or propan-2-ol treated embryo medium was taken as control. Ligand solutions were replaced every 12 h with fresh ligand solution prepared in PTU treated embryo medium. Embryos were collected at 48 hpf, fixed for 4 h at room temperature with 4% paraformaldehyde and then washed and kept in PBST. Immunocytochemistry was performed using an anti-GFP antibody and fluorescence was viewed and photographed using a Zeiss Axioplan compound microscope and a Zeiss Axiocam digital camera.

[1] = tested on: Islet1+ oculomotor neurons; assay: Islet1+ cells in mouse E11.5 brain primary cultures; format: cell-based; conditions: for Number of Islet1+ cells / Concentration giving significant difference from vehicle in Islet1+ cells: wild type cultures; for Concentration giving significant difference from vehicle in Islet1+ cells: p<0.05
Description: Primary Brain Cultures. Brains from E11.5 mice were manually dissected, plated on poly-D-lysine (150,000 cells/cm^2) and grown in serum-free N2 media consisting of 1:1 mixture of F12 and DMEM with 10 ng/mL insulin, 100 μg/mL apo-transferrin, 100 μM putrescine, 20 nM progesterone, 30 nM selenium, 6 mg/mL glucose, and 1 mg/mL BSA. Cells were treated for 3 days in vitro (DIV) with the compounds of interest, fixed with 4% PFA and processed for staining using appropriate antibodies.
Antibodies and Detection Procedures. Cells were fixed in 4% PFA, washed in PBS and blocked in 5% normal goat serum/PBS for 1 h at room temperature. Primary antibodies were diluted in PBS (pH 7.4), 0.3% Triton X-100, 1% BSA and incubations were carried out overnight at +4° C. or at room temperature for 2 h. The antibodies used were anti-:BrdU (1:400; Abeam), Islet-1 (1:100: Developmental Studies Hybridoma Bank), cleaved caspase-3 (Aspt 75) (1:100; Cell Signaling Technology), tyrosine hydroxylase (TH; 1:1000; Pel-Freeze) GABA (1:1,000; Sigma), Bm3a (1:250; Millipore), Nkx6.1 (1:200; Novus Biologicals), choline acetyltransferase (ChAT; 1:500; Millipore) and appropriate secondary antibodies (Jackson ImmunoResearch or Alexa). Cells positive for the corresponding marker were counted directly at the microscope at a magnification of 20×. Cells were counted in every well, in eight consecutive fields (going from one side of the well to the other, passing through the center), in three different wells per experiment and in three different experiments per condition. Random pictures of the wells were taken for every condition to document the result, and representative pictures were subsequently selected to represent the quantitative data. Photos were acquired with a Zeiss Axioplan microscope and a Hamamatsu camera C4742-95 using the Openlab software.

Lxrβ-LBD = target: T1, Lxrβ-LBD (Homo sapiens, UniProt P55055); assay: Lanthascreen TR-FRET Lxrβ coactivator assay; format: binding
T1 construct: the Lxrβ-LBD tagged with glutathione-S-transferase (GST); purchased Invitrogen
T1 sequence (P55055 222-460 limits assumed): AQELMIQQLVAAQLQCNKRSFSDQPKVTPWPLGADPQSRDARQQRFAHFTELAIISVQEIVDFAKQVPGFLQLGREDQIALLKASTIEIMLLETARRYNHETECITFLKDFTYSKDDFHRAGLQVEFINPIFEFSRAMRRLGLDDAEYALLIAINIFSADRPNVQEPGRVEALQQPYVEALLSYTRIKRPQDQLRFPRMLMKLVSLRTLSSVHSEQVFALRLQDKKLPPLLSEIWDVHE
Source text: Lxrβ Ligand Binding Assay. For Lxrβ ligand binding activity measurement, the applicants used the Lanthascreen™ TR-FRET Lxrβ Coactivator Assay (Invitrogen). The assay uses a terbium (Tb)-labeled anti-GST antibody, a fluorescein-labeled coactivator peptide and the Lxrβ-LBD tagged with glutathione-S-transferase (GST). Binding of the agonist/ligand to Lxrβ-LBD causes a conformational change that result in an increase in the affinity of the Lxrβ for the coactivator peptide. The close proximity of the fluorescently labeled coactivator peptide to the Tb-labeled antibody causes an increase in the TR-FRET signal intensity. The TR-FRET ratio of 520/495 was calculated using a Victor multi label reader with an excitation wavelength of 340 nm and emission wavelengths of 520 nm and 495 nm, The activational capacity of potential ligands was tested in a […] polypropylene plate, following the manufacturer's protocol.

[2] = tested on: Islet1+ oculomotor neurons; assay: In utero injection into the cerebral aqueduct of E11.5 mice; format: in vivo, mouse; conditions: for Number of Islet+ oculomotor neurons in vivo: injected at E11.5, analyzed at E13.5
Source text: Animals for in-utero injections and tissue preparation. Female wild-type CD-1 mice ([…]; Charles River Breeding Laboratories) were housed, bred, and treated according to the guidelines of the European Communities Council (directive 86/609/EEC) and the Society for Neuroscience (www.sfr.org/handbook), and all experiments were approved by the local ethical committee. Ethical approval for CD-1 mice experimentation was granted by Stockholm Norra Djurförsökselisks Nämnd number N154/06, N273/11 and N370/09, For embryo analyses, wild type CD-1 mice were mated overnight, and noon of the day the plug was considered E0.5. Embryos were dissected out of the uterine horns in ice-cold PBS, fixed in 4% paraformaldehyde (PFA) for 4 h to overnight, cryoprotected in 15-30% sucrose, frozen in Tissue-Tek Optimum Cutting Temperature (OCT) compound (Sakura Fine-Tek) on dry ice, and stored at −80° C. until use. Serial coronal 14-μm sections of the brain were obtained on a cryostat.
Immunohistochemical analysis of sections. Ten sets of 14 μm serial coronal sections were cut on a cryostat. No. 1 and 6 sets were subjected to immunohistochemistry. Sections were pre-incubated for 1 h in blocking solution followed by incubation at 4° C. overnight with following primary antibodies: anti-TH (1:750, Pel-Freeze), anti-Islet-1 (1:100; Developmental Studies Hybridoma Bank), anti-cleaved caspase-3 (Asp175) (1:100; Cell Signaling Technology). After washing, slides were incubated for 1-2 h at room temperature with the appropriate fluorophore-conjugated (Cy2-, Cy5-, 1:300, Jackson Laboratories; Alexa488-, 555-, and 647-, 1:1000, Invitrogen) secondary antibodies. Confocal pictures were taken with a Zeiss LSM5 Exciter or LSM700 microscope.
In utero intraventricular injections. E11.5 pregnant females were deeply anesthetized using Isofluorane (IsoFlo®, Abbott Labs) and the uterine horns were accessed through an abdominal incision. 1 μL, of the different cholestenoic acids studied (5 mM) or vehicle solution (isopropanol, 50% v/v) was injected into the cerebral aqueduct. […] Embryos were analyzed 48 h later.

CC(CCC[C@@H](C)[C@H]1CC[C@H]2[C@@H]3CC=C4C[C@@H](O)CC[C@]4(C)[C@H]3CC[C@]12C)C(=O)O (stereo partly drawn) [3β-HCA, 3β-hydroxycholest-5-en-26-oic acid]
Toxic effect on survival of the fish (zebrafish embryos): had a deleterious toxic effect which impaired the survival of the fish | Number of Islet1+ cells [1]: caused the loss of Islet1+ cells in the cultures | Concentration giving significant difference from vehicle in Islet1+ cells [1]: ≥ 2 µM | Competition with the effect of 3β,7α-diHCA in TR-FRET (Lxrβ-LBD; 3β,7α-diHCA at 10 μM plus increasing concentrations of competitor): the effect of 3β,7α-diHCA was reduced to that of the latter acids | Competitor concentration giving significant difference from 10 μM 3β,7α-diHCA alone in TR-FRET (Lxrβ-LBD; p<0.05 vs 10 μM 3β,7α-diHCA): ≥ 5 | Number of Islet+ oculomotor neurons in vivo [2]: the number of oculomotor neurons was reduced

CC(CCC[C@@H](C)[C@H]1CC[C@H]2[C@@H]3[C@H](O)C=C4C[C@@H](O)CC[C@]4(C)[C@H]3CC[C@]12C)C(=O)O (stereo partly drawn) [3β,7α-diHCA, 3β,7α-dihydroxycholest-5-en-26-oic acid]
Rescue of loss of Islet1+ cells induced by 2 μM 3β,7β-diHCA or 3β-HCA ([1]; 10 μM): reversed the loss of Islet1+ cells | Effect on Islet1+ cells in Lxrα−/−β−/− cultures ([1]; cultures from Lxrα−/−β−/− mice): eliminated | Number of Islet1+ cells [1]: increased the number of Islet1+ oculomotor cells in the cultures | Concentration giving significant difference from vehicle in Islet1+ cells [1]: ≥ 5 µM | Effect on Islet1+ cells with Lxr antagonist GGPP ([1]; wt cultures, 10 μM GGPP): blocked by the Lxr antagonist GGPP | TR-FRET signal (coactivator recruitment to Lxrβ-LBD) (Lxrβ-LBD; dose response): induced FRET in a dose dependent manner to a higher degree than the other acids | Effect of co-injection on the reduction of oculomotor neurons by 3β-HCA ([2]; co-injection with 3β-HCA): this effect was eliminated by co-injection of 3β,7α-diHCA | Number of Islet+ oculomotor neurons in vivo [2]: an increase in the number of Islet+ oculomotor neurons
